Test results published in ChEMBL document CHEMBL5143607, “Discovery and structure-activity relationships of a novel oxazolidinone class of bacterial type II topoisomerase inhibitors” (Bioorg Med Chem Lett, 2022).
Values after ≈ are worked out from the molar mass of the structure shown.

Columns and labels:
[1] = Lipophilicity, logD of the compound by shake flask assay; format: physicochemical; settings: octanol/water
[2] = test system: Pseudomonas aeruginosa; experiment: Antibacterial activity against Pseudomonas aeruginosa ATCC 27853 assessed as bacterial growth inhibition by CLSI protocol based assay; format: functional
[3] = test system: Escherichia coli; experiment: Antibacterial activity against Escherichia coli W4573 assessed as bacterial growth inhibition by CLSI protocol based assay; format: functional
[4] = Cytotoxicity against human HepG2 cells assessed as reduction in cell viability for 24 hrs by Celltiter-Glo assay; format: toxicity, cell-based
[5] = test system: Klebsiella pneumoniae; experiment: Antibacterial activity against Klebsiella pneumoniae ATCC 700603 assessed as bacterial growth inhibition by CLSI protocol based assay; format: functional
[6] = target: Voltage-gated inwardly rectifying potassium channel KCNH2 (Homo sapiens, UniProt Q12809); experiment: Inhibition of human ERG by Ionworks electrophysiology assay; format: toxicity
[7] = test system: Acinetobacter baumannii; experiment: Antibacterial activity against Acinetobacter baumannii NCTC 13420 assessed as bacterial growth inhibition by CLSI protocol based assay; format: functional
[8] = test system: Escherichia coli; experiment: Antibacterial activity against Escherichia coli N43 assessed as bacterial growth inhibition by CLSI protocol based assay; format: functional
[9] = test system: Staphylococcus aureus; experiment: Antibacterial activity against Staphylococcus aureus ATCC 29213 assessed as bacterial growth inhibition by CLSI protocol based assay; format: functional
[10] = target: DNA gyrase (Escherichia coli, UniProt P0AES4+P0AES6); experiment: Inhibition of Escherichia coli DNA gyrase supercoiling activity; format: protein-complex assay
[11] = Plasma protein binding in mouse assessed as free fraction by equilibrium dialysis assay; format: ADME, cell-free
[12] = Intrinsic clearance in mouse liver microsomes in presence of NADPH and measured upto 45 mins; format: ADME, Microsome; settings: read-out: CLH
[13] = target: DNA topoisomerase 2-alpha (Homo sapiens, UniProt P11388); experiment: Inhibition of human topoisomerase 2 assessed as reduction in decatenation
[14] = Inhibition of Escherichia coli topoisomerase 4 assessed as reduction in decatenation
[15] = Intrinsic clearance in human liver microsomes in presence of NADPH and measured upto 45 mins; format: ADME, Microsome; settings: read-out: CLH
[16] = target: hERG (KCNH2) (Homo sapiens, UniProt Q12809); experiment: Inhibition of human ERG at 100 uM by Ionworks electrophysiology assay; format: toxicity
[17] = Kinetic solubility of compound; format: physicochemical; settings: read-out: Kinetic_solubility
[18] = Protein binding in human plasma by equilibrium dialysis assay; format: ADME, cell-free; settings: read-out: PPB (converted)

Chain of hERG (KCNH2) (Q12809 whole entry): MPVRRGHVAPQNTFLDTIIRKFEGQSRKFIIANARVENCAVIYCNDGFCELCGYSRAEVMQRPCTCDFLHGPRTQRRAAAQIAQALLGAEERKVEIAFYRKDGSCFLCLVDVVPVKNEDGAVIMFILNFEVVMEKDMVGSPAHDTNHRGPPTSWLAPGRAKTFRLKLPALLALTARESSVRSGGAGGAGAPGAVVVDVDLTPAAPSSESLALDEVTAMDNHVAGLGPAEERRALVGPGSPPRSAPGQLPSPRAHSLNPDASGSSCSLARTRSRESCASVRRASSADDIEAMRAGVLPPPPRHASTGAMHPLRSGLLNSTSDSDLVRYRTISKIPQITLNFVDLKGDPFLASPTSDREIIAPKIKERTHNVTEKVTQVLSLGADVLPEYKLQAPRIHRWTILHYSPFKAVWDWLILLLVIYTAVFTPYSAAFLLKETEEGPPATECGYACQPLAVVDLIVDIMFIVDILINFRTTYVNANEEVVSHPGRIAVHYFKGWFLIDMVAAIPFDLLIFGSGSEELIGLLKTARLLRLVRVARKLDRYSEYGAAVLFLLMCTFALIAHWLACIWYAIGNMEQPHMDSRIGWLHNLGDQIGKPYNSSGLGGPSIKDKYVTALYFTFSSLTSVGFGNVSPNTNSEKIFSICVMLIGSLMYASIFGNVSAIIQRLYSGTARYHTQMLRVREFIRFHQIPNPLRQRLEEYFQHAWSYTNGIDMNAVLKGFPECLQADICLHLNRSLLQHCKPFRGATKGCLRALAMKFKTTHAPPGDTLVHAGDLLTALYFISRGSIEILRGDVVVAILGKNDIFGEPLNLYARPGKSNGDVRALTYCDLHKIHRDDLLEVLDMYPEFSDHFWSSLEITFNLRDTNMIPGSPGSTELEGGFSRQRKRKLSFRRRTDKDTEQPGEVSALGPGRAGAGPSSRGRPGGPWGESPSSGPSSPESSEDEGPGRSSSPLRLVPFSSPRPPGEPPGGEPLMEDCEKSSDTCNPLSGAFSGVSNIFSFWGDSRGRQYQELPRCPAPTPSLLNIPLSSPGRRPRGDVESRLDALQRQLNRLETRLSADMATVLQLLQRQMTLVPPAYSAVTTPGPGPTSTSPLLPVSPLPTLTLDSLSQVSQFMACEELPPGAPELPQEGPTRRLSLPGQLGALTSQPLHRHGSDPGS
Chain of Voltage-gated inwardly rectifying potassium channel KCNH2 (Q12809 whole entry): as above
Chain of DNA topoisomerase 2-alpha (P11388 whole entry): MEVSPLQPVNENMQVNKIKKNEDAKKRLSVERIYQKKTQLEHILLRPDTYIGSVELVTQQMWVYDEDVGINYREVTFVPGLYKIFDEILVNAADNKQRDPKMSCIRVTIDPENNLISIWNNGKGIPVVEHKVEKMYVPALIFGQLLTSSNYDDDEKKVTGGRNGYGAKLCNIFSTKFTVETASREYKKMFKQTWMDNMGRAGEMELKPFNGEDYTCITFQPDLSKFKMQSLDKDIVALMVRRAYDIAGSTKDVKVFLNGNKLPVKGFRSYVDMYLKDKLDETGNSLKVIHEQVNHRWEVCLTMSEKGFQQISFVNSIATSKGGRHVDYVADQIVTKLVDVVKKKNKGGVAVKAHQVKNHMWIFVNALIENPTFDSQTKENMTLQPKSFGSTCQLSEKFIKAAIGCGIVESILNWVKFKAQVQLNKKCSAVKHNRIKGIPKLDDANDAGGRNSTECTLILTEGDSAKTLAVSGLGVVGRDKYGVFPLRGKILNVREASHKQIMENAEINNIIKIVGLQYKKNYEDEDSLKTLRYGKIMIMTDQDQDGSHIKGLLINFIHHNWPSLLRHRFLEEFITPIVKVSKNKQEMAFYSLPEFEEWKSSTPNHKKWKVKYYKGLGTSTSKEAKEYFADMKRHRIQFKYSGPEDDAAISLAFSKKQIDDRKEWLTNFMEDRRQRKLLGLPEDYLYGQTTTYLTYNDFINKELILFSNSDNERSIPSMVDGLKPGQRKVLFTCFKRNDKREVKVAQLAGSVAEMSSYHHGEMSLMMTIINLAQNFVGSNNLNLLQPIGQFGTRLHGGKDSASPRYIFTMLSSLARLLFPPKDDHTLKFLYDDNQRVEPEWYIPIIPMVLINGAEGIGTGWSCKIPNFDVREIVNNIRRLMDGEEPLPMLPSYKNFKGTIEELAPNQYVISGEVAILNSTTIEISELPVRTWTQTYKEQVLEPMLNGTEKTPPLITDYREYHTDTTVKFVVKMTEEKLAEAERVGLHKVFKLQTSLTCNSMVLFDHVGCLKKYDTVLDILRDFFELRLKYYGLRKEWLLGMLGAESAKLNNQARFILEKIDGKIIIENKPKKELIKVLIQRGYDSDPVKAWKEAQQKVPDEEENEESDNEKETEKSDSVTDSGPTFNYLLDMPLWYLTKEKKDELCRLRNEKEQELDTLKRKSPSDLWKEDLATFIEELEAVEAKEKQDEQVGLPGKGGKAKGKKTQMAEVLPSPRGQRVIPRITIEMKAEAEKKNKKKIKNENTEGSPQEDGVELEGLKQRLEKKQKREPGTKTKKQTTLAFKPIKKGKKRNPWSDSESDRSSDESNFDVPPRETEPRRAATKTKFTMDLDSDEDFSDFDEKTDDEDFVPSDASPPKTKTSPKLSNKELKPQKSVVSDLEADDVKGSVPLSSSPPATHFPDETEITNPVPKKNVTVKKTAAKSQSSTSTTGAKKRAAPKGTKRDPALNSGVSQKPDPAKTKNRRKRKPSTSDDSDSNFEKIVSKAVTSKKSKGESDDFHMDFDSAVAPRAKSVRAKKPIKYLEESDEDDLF

SMILES | logD [1] | MIC [2] | MIC [3] | IC50 at 24 h [4] | MIC [5] | IC50 [6] | MIC [7] | MIC [8] | MIC [9] | IC50 [10] | fraction unbound [11] | microsomal CLint [12] | IC50 [13] | IC50 [14] | microsomal CLint [15] | inhibition at 100 µM [16] | solubility kinetic [17] | fraction unbound [18]
COc1ccc2ccc(=O)n(CCN[C@H]3CC[C@H]4[C@H](C3)OC(=O)N4c3ncc4c(n3)NC(=O)CO4)c2n1 | 0.9 | 8 µg/mL (≈ 15.8 µM) | 0.5 µg/mL (≈ 0.985 µM) | > 128 µg/mL | 8 µg/mL (≈ 15.8 µM) | > 32 µM | 1 µg/mL (≈ 1.97 µM) | 0.015 µg/mL (≈ 0.0296 µM) | – | – | – | – | – | – | – | – | – | –
COc1cnc2ccc(=O)n(CCN[C@H]3CC[C@H]4[C@H](C3)OC(=O)N4c3ccc4c(n3)NC(=O)CO4)c2n1 | 1.37 | 1 µg/mL (≈ 1.97 µM) | 0.12 µg/mL (≈ 0.236 µM) | > 128 µg/mL | 2 µg/mL (≈ 3.94 µM) | 9 µM | 0.12 µg/mL (≈ 0.236 µM) | 0.004 µg/mL (≈ 0.00788 µM) | 0.015 µg/mL (≈ 0.0296 µM) | – | – | – | – | – | – | – | – | –
N#Cc1cnc2ccc(=O)n(CCN[C@H]3CC[C@H]4[C@H](C3)OC(=O)N4c3ccc4c(n3)NC(=O)CO4)c2c1 | 0.79 | 2 µg/mL (≈ 3.99 µM) | 0.25 µg/mL (≈ 0.499 µM) | > 128 µg/mL | 8 µg/mL (≈ 16 µM) | > 100 µM | 1 µg/mL (≈ 1.99 µM) | 0.004 µg/mL (≈ 0.00798 µM) | 0.06 µg/mL (≈ 0.12 µM) | 0.09 µM | > 0.3 | 55 µL/min/mg | > 100 µM | 0.017 µM | < 3 µL/min/mg | – | – | –
O=C1COc2ccc(N3C(=O)O[C@H]4C[C@@H](NCCn5c(=O)ccc6ccc(C(=O)O)cc65)CC[C@@H]43)nc2N1 | < 0.2 | > 64 µg/mL | > 64 µg/mL | – | > 64 µg/mL | – | > 64 µg/mL | 16 µg/mL (≈ 30.8 µM) | > 64 µg/mL | – | – | – | – | – | – | 33% | – | –
O=C1COc2ccc(N3C(=O)O[C@H]4C[C@@H](NCCn5c(=O)cnc6ccc(F)cc65)CC[C@@H]43)nc2N1 | 1.58 | 4 µg/mL (≈ 8.09 µM) | 0.25 µg/mL (≈ 0.506 µM) | > 64 µg/mL | 8 µg/mL (≈ 16.2 µM) | – | 0.03 µg/mL (≈ 0.0607 µM) | ≤ 0.002 µg/mL | 0.015 µg/mL (≈ 0.0303 µM) | – | – | – | – | – | – | 33% | – | –
COc1cnc2ccc(=O)n(CCN[C@H]3CC[C@H]4[C@H](C3)OC(=O)N4c3ccc4c(n3)NC(=O)CO4)c2c1 | 1.36 | 2 µg/mL (≈ 3.95 µM) | 0.25 µg/mL (≈ 0.494 µM) | > 128 µg/mL | 8 µg/mL (≈ 15.8 µM) | 32 µM | 1 µg/mL (≈ 1.97 µM) | ≤ 0.008 µg/mL | 0.03 µg/mL (≈ 0.0592 µM) | 0.22 µM | 0.25 | 62 µL/min/mg | > 100 µM | 0.1 µM | 35 µL/min/mg | – | 94 µM (≈ 47.6 µg/mL) | –
COc1ccc2ccc(=O)n(CCN[C@H]3CC[C@H]4[C@H](C3)OC(=O)N4c3ccc4c(n3)NC(=O)CO4)c2c1 | 2.25 | 4 µg/mL (≈ 7.91 µM) | 0.25 µg/mL (≈ 0.495 µM) | > 64 µg/mL | 8 µg/mL (≈ 15.8 µM) | – | 0.06 µg/mL (≈ 0.119 µM) | 0.03 µg/mL (≈ 0.0593 µM) | 0.008 µg/mL (≈ 0.0158 µM) | – | – | – | – | – | – | 85% | – | –
COc1ccc2ccc(=O)n(CCN[C@H]3CC[C@H]4[C@H](C3)OC(=O)N4c3ccc4c(n3)NC(=O)C(C)(C)O4)c2n1 | 2.84 | 32 µg/mL (≈ 59.9 µM) | 2 µg/mL (≈ 3.74 µM) | – | 64 µg/mL (≈ 120 µM) | – | 1 µg/mL (≈ 1.87 µM) | 0.03 µg/mL (≈ 0.0561 µM) | 0.03 µg/mL (≈ 0.0561 µM) | – | – | – | – | – | – | – | – | –
COc1ccc2ccc(=O)n(CCN[C@@H]3CC[C@@H]4[C@@H](C3)OC(=O)N4c3ccc4c(n3)NC(=O)CO4)c2n1 | 1.8 | 0.25 µg/mL (≈ 0.494 µM) | 0.03 µg/mL (≈ 0.0592 µM) | 64 µg/mL (≈ 126 µM) | 1 µg/mL (≈ 1.97 µM) | 10 µM | 0.06 µg/mL (≈ 0.118 µM) | < 0.004 µg/mL | 0.03 µg/mL (≈ 0.0592 µM) | – | – | – | – | – | – | – | – | 0.947
COc1ccc2ncc(=O)n(CCN[C@H]3CC[C@H]4[C@H](C3)OC(=O)N4c3ccc4c(n3)NC(=O)CO4)c2n1 | 1.6 | 4 µg/mL (≈ 7.88 µM) | 0.25 µg/mL (≈ 0.493 µM) | > 64 µg/mL | 4 µg/mL (≈ 7.88 µM) | 7 µM | 0.06 µg/mL (≈ 0.118 µM) | ≤ 0.008 µg/mL | 0.015 µg/mL (≈ 0.0296 µM) | – | – | – | – | – | – | – | – | –
COc1ncc2ccc(=O)n(CCN[C@H]3CC[C@H]4[C@H](C3)OC(=O)N4c3ccc4c(n3)NC(=O)CO4)c2n1 | 1.79 | > 64 µg/mL | 32 µg/mL (≈ 63.1 µM) | – | > 64 µg/mL | – | 3.2 µg/mL (≈ 6.31 µM) | 1 µg/mL (≈ 1.97 µM) | 2 µg/mL (≈ 3.94 µM) | – | – | – | – | – | – | – | – | –
O=C1COc2ccc(N3C(=O)O[C@H]4C[C@@H](NCCCn5c(=O)cnc6ccc(F)cc65)CC[C@@H]43)nc2N1 | 1.26 | 1 µg/mL (≈ 1.97 µM) | 0.12 µg/mL (≈ 0.236 µM) | > 128 µg/mL | 2 µg/mL (≈ 3.93 µM) | 13 µM | 0.12 µg/mL (≈ 0.236 µM) | 0.25 µg/mL (≈ 0.492 µM) | 0.25 µg/mL (≈ 0.492 µM) | – | – | – | – | – | – | – | – | –
N#Cc1ccc2ccc(=O)n(CCCN[C@H]3CC[C@H]4[C@H](C3)OC(=O)N4c3ccc4c(n3)NC(=O)CO4)c2c1 | 1.03 | 1 µg/mL (≈ 1.94 µM) | 0.06 µg/mL (≈ 0.117 µM) | 55 µg/mL (≈ 107 µM) | 2 µg/mL (≈ 3.89 µM) | 7 µM | 0.12 µg/mL (≈ 0.233 µM) | ≤ 0.016 µg/mL | 0.06 µg/mL (≈ 0.117 µM) | – | – | – | – | – | – | – | – | –
COc1ccc2ccc(=O)n(CCCN[C@H]3CC[C@H]4[C@H](C3)OC(=O)N4c3ccc4c(n3)NC(=O)CO4)c2n1 | 1.61 | 4 µg/mL (≈ 7.68 µM) | 0.25 µg/mL (≈ 0.48 µM) | 40 µg/mL (≈ 76.8 µM) | 8 µg/mL (≈ 15.4 µM) | – | 0.06 µg/mL (≈ 0.115 µM) | ≤ 0.002 µg/mL | 0.015 µg/mL (≈ 0.0288 µM) | – | – | – | – | – | – | 97% | – | –
COc1cc2c(ccc(=O)n2CCN[C@H]2CC[C@H]3[C@H](C2)OC(=O)N3c2ccc3c(n2)NC(=O)CO3)cn1 | 1.69 | 16 µg/mL (≈ 31.6 µM) | 2 µg/mL (≈ 3.95 µM) | – | 32 µg/mL (≈ 63.2 µM) | – | 0.5 µg/mL (≈ 0.987 µM) | 0.06 µg/mL (≈ 0.118 µM) | 0.5 µg/mL (≈ 0.987 µM) | – | – | – | – | – | – | 83% | – | –
N#Cc1ccc2c(ccc(=O)n2CCN[C@H]2CC[C@H]3[C@H](C2)OC(=O)N3c2ccc3c(n2)NC(=O)CO3)c1 | 1.69 | > 64 µg/mL | 4 µg/mL (≈ 7.99 µM) | – | > 64 µg/mL | – | 8 µg/mL (≈ 16 µM) | 0.06 µg/mL (≈ 0.12 µM) | 4 µg/mL (≈ 7.99 µM) | – | – | – | – | – | – | 56% | – | –
N#Cc1cnc2ccc(=O)n(CCN[C@H]3CC[C@H]4[C@H](C3)OC(=O)N4c3ccc4c(n3)NC(=O)CS4)c2c1 | 1.42 | 2 µg/mL (≈ 3.86 µM) | 0.5 µg/mL (≈ 0.966 µM) | > 128 µg/mL | 16 µg/mL (≈ 30.9 µM) | 20 µM | 0.12 µg/mL (≈ 0.232 µM) | 0.004 µg/mL (≈ 0.00773 µM) | 0.03 µg/mL (≈ 0.058 µM) | – | – | – | – | – | – | – | – | –
O=C(O)c1cn(C2CC2)c2cc(N3CCNCC3)c(F)cc2c1=O [CIPROFLOXACIN] | – | – | – | > 128 µg/mL | – | – | – | – | – | – | – | – | – | 0.03 µM | – | – | – | –
